# Measured values: publication PMC9411704, “Assessment of the Carcinogenic Potential of Pretomanid in Transgenic Tg.rasH2 Mice” (International Journal of Toxicology, 2022)
# Legend:
# [1] = Plasma exposure in the mouse micronucleus study; assay type: in vivo, mice
# CHO-K1 cells = experiment: Chromosome aberration assay in CHO cells
# Protocol: CHO-K1 cells (American Type Culture Collection) were exposed to pretomanid at 22.5 to 360 μg/mL for 4 hours with and without added S9 mix and for 20 hours without added S9 mix. All cells were harvested 20 hours after treatment initiation. The assay was performed using standard procedures, [13] including duplicate cultures and appropriate negative and positive controls. Under each set of conditions, three test concentrations were evaluated. The highest was the lowest precipitating concentration, and two additional lower concentrations also were evaluated.
# After incubation, cells were harvested and placed on slides, which were examined microscopically to determine relative mitotic index and to evaluate metaphase spreads for structural or numerical chromosome aberrations. Where possible, 200 metaphase spreads were evaluated. The mean numbers of aberrations in various cultures were compared to reach conclusions about assay validity and clastogenic potential.
# mouse lymphoma cells = experiment: Non-GLP in vitro mouse lymphoma assay; assay type: cell-based; conditions: concentrations up to 1000 μg/mL, data not shown
# [2] = test system: CD-1(ICR) BR mice, bone marrow erythrocytes; experiment: Bone marrow micronucleus assay in mice; assay type: in vivo
# Protocol: Groups of male CD-1®(ICR) BR mice were given single oral doses of vehicle (0.4% CMC), positive control article, or pretomanid at 125, 500 or 2000 mg/kg and then were euthanized approximately 24 or 48 hours later to harvest femoral bone marrow. Bone marrow was mounted on slides and stained with May-Grünwald solution and Giemsa. For each mouse, 500 red blood cells were examined to determine the ratio of immature red blood cells (polychromatophilic erythrocytes or PCEs) to mature red blood cells (normochromatophilic erythrocytes of NCEs) and 2000 PCEs were examined to determine the ratio of micronucleated PCEs (mnPCEs) to normal PCEs.
# The mean PCE-to-NCE ratios in various groups were compared to reach conclusions about assay validity and effects on erythropoiesis. The mean mnPCE-to-PCE ratios in various groups were compared to reach conclusions about assay validity and clastogenicity. Comparisons were made using an analysis of variance on untransformed mnPCE-to-PCE ratios for each mouse and on untransformed PCE-to-NCE ratios when the variances were homogeneous. Ranked proportions were used for heterogeneous variances. […] Comparisons were made at the 5% probability level.
# [3] = set-up: method as in unpublished data; conditions: humans, 14C-labelled pretomanid; ref unpublished data; cited from earlier work
# [4] = Mass balance study in humans using 14C-labelled pretomanid; assay type: in vivo; conditions: human, plasma, oral; 6% of the pretomanid therapeutic AUC0-24, 200 mg/day; read-out: Estimated human AUC0-24 of M50
smiles,measurement,setting,value
"O=[N+]([O-])c1cn2c(n1)OC[C@@H](OCc1ccc(OC(F)(F)F)cc1)C2 [Pretomanid, (6S)-2-nitro-6-{[4-(trifluoromethoxy)benzyl]oxy}-6,7-dihydro-5H-imidazo[2,1-b][1,3]oxazine]",Cmax,"[1]; male, CD-1(ICR) BR, mouse, single oral dose 2000 mg/kg, plasma",36000 ng/mL
same,AUC(0-t),"[1]; male, CD-1(ICR) BR, mouse, single oral dose 2000 mg/kg, plasma, read-out: Mean AUClast",1140 µg·h/mL
same,Dose proportionality of plasma exposure (Cmax and AUC),[1]; single oral 125 to 2000 mg/kg,increased less than proportionally with dose level
same,Cytotoxicity in CHO cells,"CHO-K1 cells; 22.5 to 360 μg/mL, 4 h ±S9, 20 h −S9",no cytotoxicity was observed
same,Frequency of chromosome aberrations,"CHO-K1 cells; any concentration, P>0.05",did not significantly increase
same,Clastogenic potential in mammalian cells in vitro,"CHO-K1 cells; up to 360 μg/mL, 4 h ±S9, 20 h −S9",negative
same,Genotoxicity in mouse lymphoma assay,mouse lymphoma cells,negative
same,mnPCE-to-PCE ratio,"[2]; any dose level (125, 500, 2000 mg/kg), 24 or 48 h",did not significantly increase
same,Effect on erythropoiesis (PCE:NCE ratio),"[2]; single oral 125, 500 or 2000 mg/kg",did not affect erythropoiesis
same,Clastogenic potential in vivo,[2]; single oral doses up to 2000 mg/kg,negative
O=[N+]([O-])c1cn2c(n1)OC[C@@H](O)C2 [M50],M50 metabolite as % of the parent compound,[3],~6%
same,AUC(0-t),[4],~3 µg·h/mL
